This is an account of results in patent publication US6630500B2, “Selected fused pyrrolocarbazoles” (Cephalon, Inc., priority 2000, dated 2003).

What all share (format): biochemical
Assay [1] has as its target T1, MLK3 (Homo sapiens, UniProt Q16584).
T1 construct: 2 μg/ml of baculoviral GST-MLK3KD; GST (N); made in house
The experiment in a line: Inhibition of Mixed Lineage Kinase-3 (MLK3) activity. The note with it: 100 μM ATP; values without % sign. As to the method: (§1) The kinase activity of MLK1 was assessed using the Millipore Multiscreen TCA “in-plate” format as described for protein kinase C (Pitt & Lee, J. Biomol. Screening, 1: 47-51, 1996). Briefly, each 50-μl assay mixture contained 20 mM Hepes, pH 7.2, 5 mM EGTA, 15 mM MgCl2, 25 mM β-glycerophosphate, 60 μM ATP, 0.25 μCi [γ-^32P]ATP, 0.1% BSA, 500 μ/ml myelin basic protein (UBI #13-104), 2% DMSO, 1 μM of test compound, and 1 μg/ml of baculoviral GST-MLK1KD. Samples were incubated for 15 min at 37° C. The reaction was stopped by adding ice cold 50% TCA and the proteins were allowed to precipitate for 30 min at 4° C. The plates were then washed with ice cold 25% TCA. Supermix scintillation cocktail was added, and the plates were allowed to equilibrate for 1-2 hours prior to counting using the Wallac MicroBeta 1450 PLUS scintillation counter.
(§2) Assays were performed using the Millipore Multiscreen plate format as described for MLK1. Briefly, each 50-μl assay mixture contained 20 mM Hepes, pH 7.2, 5 mM EGTA, 15 mM MgCl2, 25 mM β-glycerophosphate, 100 μM ATP, 0.25 μCi [γ-^32P]ATP, 0.1% BSA, 500 μg/ml myelin basic protein (UBI #13-104), 2% DMSO, various concentrations of test compound, and 2 μg/ml of baculoviral GST-MLK3KD. Sample were incubated for 15 min at 37° C. The reaction was stopped by adding ice cold 50% TCA and the proteins were allowed to precipitate for 30 min at 4° C. The plates were then washed with ice cold 25% TCA. Supermix scintillation cocktail was added, and the plates were allowed to equilibrate for 1-2 hours prior to counting.

Assay [2] addresses T2, MLK1 (Homo sapiens, UniProt P80192).
T2 construct: 1 μg/ml of baculoviral GST-MLK1KD; GST (N); made in house
Nature of the assay: Inhibition of Mixed Lineage Kinase-1 (MLK1) activity. Conditions: 60 μM ATP; values without % sign. As to the method:
The kinase activity of MLK1 was assessed using the Millipore Multiscreen TCA “in-plate” format as described for protein kinase C (Pitt & Lee, J. Biomol. Screening, 1: 47-51, 1996). Briefly, each 50-μl assay mixture contained 20 mM Hepes, pH 7.2, 5 mM EGTA, 15 mM MgCl2, 25 mM β-glycerophosphate, 60 μM ATP, 0.25 μCi [γ-^32P]ATP, 0.1% BSA, 500 μ/ml myelin basic protein (UBI #13-104), 2% DMSO, […], and 1 μg/ml of baculoviral GST-MLK1KD. Samples were incubated for 15 min at 37° C. The reaction was stopped by adding ice cold 50% TCA and the proteins were allowed to precipitate for 30 min at 4° C. The plates were then washed with ice cold 25% TCA. Supermix scintillation cocktail was added, and the plates were allowed to equilibrate for 1-2 hours prior to counting using the Wallac MicroBeta 1450 PLUS scintillation counter.

Assay [3] has as its target T3, VEGF receptor (human flk-1, KDR, VEGFR2) kinase domain (Homo sapiens, UniProt P35968).
T3 construct: VEGF receptor (human flk-1, KDR, VEGFR2) kinase domain; made in house
The experiment in a line: Inhibition of VEGF receptor kinase activity (ELISA). Conditions: 40 μM ATP; values without % sign. As to the method:
Fused pyrrolocarbazole compounds were examined for their inhibitory effects on the kinase activity of baculovirus-expressed VEGF receptor (human flk-1, KDR, VEGFR2) kinase domain using the procedure described for the trkA kinase ELISA assay described below. The kinase reaction mixture, consisting of 50 mM Hepes, pH 7.4, 40 μM ATP, 10 mM MnCl2, 0.1% BSA, 2% DMSO, and various concentrations of inhibitor, was transferred to PLC-γ/GST-coated plates. VEGFR kinase was added and the reaction was allowed to proceed for 15 min. at 37° C. Detection of phosphorylated product was accomplished by addition of anti-phosphotyrosine antibody (UBI). A secondary enzyme-conjugated antibody was delivered to capture the antibody-phosphorylated PLC-γ/GST complex. The activity of the bound enzyme was measured via an amplified detection system (Gibco-BRL). Inhibition data were analyzed using the sigmoidal dose-response (variable slope) equation in GraphPad Prism.
Selected isomeric fused pyrrolocarbazole and isoindolone compounds can be tested for their ability to inhibit the kinase activity of baculovirus-expressed human trkA cytoplasmic domain using an ELISA-based assay as previously described (Angeles et al., Anal. Biochem. 236: 49-55, 1996). Briefly, the 96-well microtiter plate is coated with substrate solution (recombinant human phospholipase C-γl/glutathione S-transferase fusion protein (Rotin et al., EMBO J., 11: 559-567, 1992). Inhibition studies are performed in 100 μl assay mixtures containing 50 mM Hepes, pH 7.4, 40 μM ATP, 10 mM MnCl2, 0.1% BSA, 2% DMSO, and various concentrations of inhibitor. The reaction is initiated by addition of trkA kinase and allowed to proceed for 15 minutes at 37° C. An antibody to phosphotyrosine (UBI) is then added, followed by a secondary enzyme-conjugated antibody, alkaline phosphatase-labelled goat anti-mouse IgG (Bio-Rad). The activity of the bound enzyme is measured via an amplified detection system (Gibco-BRL). Inhibition data are analyzed using the sigmoidal dose-response (variable slope) equation in GraphPad Prism.
(An ELISA detects its analyte on a solid surface through an enzyme-linked reagent.)

For assay [4], the target named is T4, MLK2 (Homo sapiens, UniProt Q02779).
T4 construct: fused on or other part: GST tag
T4 sequence (Q02779 98-440 limits assumed): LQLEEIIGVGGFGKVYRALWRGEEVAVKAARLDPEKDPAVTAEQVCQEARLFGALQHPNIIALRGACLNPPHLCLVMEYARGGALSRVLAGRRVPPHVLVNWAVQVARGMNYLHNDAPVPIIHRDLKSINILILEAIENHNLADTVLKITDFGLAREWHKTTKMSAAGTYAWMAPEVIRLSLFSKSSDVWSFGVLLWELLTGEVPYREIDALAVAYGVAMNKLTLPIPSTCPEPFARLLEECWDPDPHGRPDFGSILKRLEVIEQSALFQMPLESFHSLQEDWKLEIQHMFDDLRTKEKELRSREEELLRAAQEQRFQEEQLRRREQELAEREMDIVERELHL
Nature of the assay: Inhibition of Mixed Lineage Kinase-2 (MLK2) activity. Conditions: 100 nM compound; 100 μM ATP. As to the method: as §1
as §2, with “MLK1. Each” for “MLK1. Briefly, each”, “and 3” for “and 2”, “baculoviral GST-MLK2KDLZ. Samples” for “baculoviral GST-MLK3KD. Sample”, “15 min.” for “15 min”

T2 sequence (P80192 144-412 limits assumed, species assumed): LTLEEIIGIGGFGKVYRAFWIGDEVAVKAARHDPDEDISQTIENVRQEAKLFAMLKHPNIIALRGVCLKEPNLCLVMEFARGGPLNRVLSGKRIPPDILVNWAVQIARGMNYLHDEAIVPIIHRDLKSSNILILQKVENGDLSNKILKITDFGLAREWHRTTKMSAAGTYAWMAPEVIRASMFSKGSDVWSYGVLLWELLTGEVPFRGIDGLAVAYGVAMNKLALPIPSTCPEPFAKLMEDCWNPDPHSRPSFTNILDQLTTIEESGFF
T1 sequence (Q16584 117-379 limits assumed, species assumed): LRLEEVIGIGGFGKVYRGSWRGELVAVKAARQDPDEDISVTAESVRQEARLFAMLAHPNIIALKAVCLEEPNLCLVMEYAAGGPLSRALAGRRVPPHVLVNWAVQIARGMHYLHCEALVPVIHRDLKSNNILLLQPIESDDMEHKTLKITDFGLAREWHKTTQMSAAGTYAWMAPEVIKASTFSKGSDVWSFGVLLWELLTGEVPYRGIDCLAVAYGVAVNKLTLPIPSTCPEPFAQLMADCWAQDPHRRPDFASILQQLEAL
T3 sequence (P35968 834-1162 limits assumed): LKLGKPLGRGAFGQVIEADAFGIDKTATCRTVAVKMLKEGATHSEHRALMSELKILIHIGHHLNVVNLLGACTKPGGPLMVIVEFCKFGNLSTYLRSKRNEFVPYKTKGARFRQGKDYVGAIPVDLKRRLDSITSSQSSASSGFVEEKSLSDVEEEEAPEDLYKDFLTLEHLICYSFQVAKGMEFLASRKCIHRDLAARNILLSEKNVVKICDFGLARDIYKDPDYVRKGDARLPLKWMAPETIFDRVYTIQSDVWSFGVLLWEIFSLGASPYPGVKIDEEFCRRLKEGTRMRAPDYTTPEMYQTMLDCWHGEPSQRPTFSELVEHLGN

As a reminder, the IC50 is the concentration that gives 50% inhibition. Lower therefore signals higher potency. In general, inhibition refers to the relative decrease from the control value, in per cent. A lower inhibition goes with a response near the control. As for `O=C1NCc2c1c1c(c3c2c2cc(CO)ccc2n3CCCO)Cc2ccccc2-1` [Compound 29], the IC50 in assay [1] stood at 5 nM; in assay [2] it was 9 nM; in assay [3], 208 nM. For the same compound, 0.1 µM produced 64% inhibition in assay [4].

Take `O=C1NCc2c1c1c(c3c2c2ccccc2n3CCCO)Cc2ccccc2-1` [Compound B, reference compound]: the results for the IC50 in assay [1], in assay [2] and in assay [3] were 17 nM, 31 nM and 48 nM, respectively. This compound also came in with an inhibition at 0.1 µM in assay [4] of 46%.
